Experimental data published in patent publication US11655235B2, “Pyrrolidine and piperidine compounds” (YUHAN CORPORATION, priority 2019, dated 2023).
pIC50: −log10 of the molar value.

What was measured:
Assay type in all cases: biochemical
[1] = molecular target: T1, recombinant human DPP9 (Homo sapiens, UniProt Q86TI2); experiment: DPP9 inhibition, fluorogenic substrate H-Gly-Pro-AMC; details: recombinant human DPP9
T1 construct: purchased R&D Systems
Procedure, shortened: (§1)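 Enzyme per reaction: 50 ng DPP9, 20 ng DPP8, 10 ng each DPP7 and PREP. Compounds were serially diluted (8 points, up to 0.5% DMSO) and incubated at 25 °C.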

[2] = molecular target: T2, recombinant human DPP8 (Homo sapiens, UniProt Q6V1X1); experiment: DPP8 inhibition, fluorogenic substrate Z-Ala-Pro-AMC; details: recombinant human DPP8
T2 construct: purchased PBS Bioscience
T2 sequence (Q6V1X1 whole entry): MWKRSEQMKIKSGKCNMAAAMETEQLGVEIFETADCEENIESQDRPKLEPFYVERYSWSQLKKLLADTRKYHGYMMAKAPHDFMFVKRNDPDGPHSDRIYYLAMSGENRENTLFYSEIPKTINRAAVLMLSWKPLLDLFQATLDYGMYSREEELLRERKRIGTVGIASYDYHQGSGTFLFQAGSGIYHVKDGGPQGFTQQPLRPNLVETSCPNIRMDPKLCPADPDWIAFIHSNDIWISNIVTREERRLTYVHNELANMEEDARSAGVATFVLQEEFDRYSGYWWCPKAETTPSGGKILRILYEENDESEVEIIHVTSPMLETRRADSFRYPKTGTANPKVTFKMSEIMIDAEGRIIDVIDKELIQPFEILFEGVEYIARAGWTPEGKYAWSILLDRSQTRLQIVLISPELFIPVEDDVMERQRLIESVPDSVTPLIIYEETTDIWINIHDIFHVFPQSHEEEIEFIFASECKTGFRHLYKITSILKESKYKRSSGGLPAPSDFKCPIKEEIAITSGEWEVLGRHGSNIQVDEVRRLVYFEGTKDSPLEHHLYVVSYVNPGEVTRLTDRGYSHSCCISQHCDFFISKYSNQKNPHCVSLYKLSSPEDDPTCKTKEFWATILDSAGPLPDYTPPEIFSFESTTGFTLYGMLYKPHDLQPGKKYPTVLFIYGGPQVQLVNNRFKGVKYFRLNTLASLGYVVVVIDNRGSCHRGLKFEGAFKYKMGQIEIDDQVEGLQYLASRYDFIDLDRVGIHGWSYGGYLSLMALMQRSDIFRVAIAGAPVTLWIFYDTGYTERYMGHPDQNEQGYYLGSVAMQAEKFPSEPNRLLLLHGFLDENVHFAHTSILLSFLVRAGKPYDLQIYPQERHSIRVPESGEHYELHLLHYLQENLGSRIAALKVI
Procedure, shortened: as §1

[3] = molecular target: T3, recombinant human DPP7 (Homo sapiens, UniProt Q9UHL4); experiment: DPP7 inhibition, fluorogenic substrate Lys-Pro-AMC; details: recombinant human DPP7
T3 construct: purchased R&D Systems
Procedure, shortened: as §1

[4] = molecular target: T4, Recombinant human FAP (Homo sapiens, UniProt Q12884); experiment: FAP inhibition, fluorogenic substrate Z-Gly-Pro-AMC; details: recombinant human FAP, substrate Z-Gly-Pro-AMC
T4 construct: purchased R&D systems
T4 sequence (Q12884 1-760): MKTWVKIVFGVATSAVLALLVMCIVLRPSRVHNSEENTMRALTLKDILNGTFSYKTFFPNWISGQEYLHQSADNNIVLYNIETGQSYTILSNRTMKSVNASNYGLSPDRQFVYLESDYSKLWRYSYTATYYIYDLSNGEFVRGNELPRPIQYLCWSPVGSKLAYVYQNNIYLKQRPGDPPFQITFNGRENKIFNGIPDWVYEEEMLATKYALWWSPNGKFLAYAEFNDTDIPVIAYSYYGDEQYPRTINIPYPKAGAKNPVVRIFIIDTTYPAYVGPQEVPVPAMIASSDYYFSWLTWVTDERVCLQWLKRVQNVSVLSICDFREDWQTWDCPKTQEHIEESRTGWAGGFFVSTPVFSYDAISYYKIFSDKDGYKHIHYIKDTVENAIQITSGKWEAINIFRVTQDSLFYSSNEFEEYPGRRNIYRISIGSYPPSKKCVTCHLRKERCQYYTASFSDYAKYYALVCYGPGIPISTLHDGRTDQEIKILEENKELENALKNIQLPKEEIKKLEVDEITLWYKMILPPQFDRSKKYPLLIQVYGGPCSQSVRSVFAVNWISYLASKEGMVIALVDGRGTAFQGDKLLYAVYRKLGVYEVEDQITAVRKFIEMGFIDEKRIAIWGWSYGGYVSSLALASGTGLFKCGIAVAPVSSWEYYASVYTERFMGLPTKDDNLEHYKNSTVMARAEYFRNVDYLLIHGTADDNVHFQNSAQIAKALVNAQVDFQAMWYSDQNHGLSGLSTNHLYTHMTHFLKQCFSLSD
Procedure, shortened: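 Recombinant human FAP, 10 ng per reaction, in 50 mM Tris pH 7.5 with 1 M NaCl and 1 mg/ml BSA at 25° C; substrate Z-Gly-Pro-AMC, ≤0.1% DMSO. AMC fluorescence read at ex 380/em 460 nm; % signal-rate decrease vs no-inhibitor control, 8-point curves fitted to a four-parameter logistic for IC50.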

[5] = molecular target: T5, recombinant human PREP (Homo sapiens, UniProt P48147); experiment: PREP inhibition, fluorogenic substrate Z-Gly-Pro-AMC; details: Inhibitory Activity (IC50, nM) PREP, recombinant human PREP
T5 construct: purchased R&D System
T5 sequence (P48147 1-710): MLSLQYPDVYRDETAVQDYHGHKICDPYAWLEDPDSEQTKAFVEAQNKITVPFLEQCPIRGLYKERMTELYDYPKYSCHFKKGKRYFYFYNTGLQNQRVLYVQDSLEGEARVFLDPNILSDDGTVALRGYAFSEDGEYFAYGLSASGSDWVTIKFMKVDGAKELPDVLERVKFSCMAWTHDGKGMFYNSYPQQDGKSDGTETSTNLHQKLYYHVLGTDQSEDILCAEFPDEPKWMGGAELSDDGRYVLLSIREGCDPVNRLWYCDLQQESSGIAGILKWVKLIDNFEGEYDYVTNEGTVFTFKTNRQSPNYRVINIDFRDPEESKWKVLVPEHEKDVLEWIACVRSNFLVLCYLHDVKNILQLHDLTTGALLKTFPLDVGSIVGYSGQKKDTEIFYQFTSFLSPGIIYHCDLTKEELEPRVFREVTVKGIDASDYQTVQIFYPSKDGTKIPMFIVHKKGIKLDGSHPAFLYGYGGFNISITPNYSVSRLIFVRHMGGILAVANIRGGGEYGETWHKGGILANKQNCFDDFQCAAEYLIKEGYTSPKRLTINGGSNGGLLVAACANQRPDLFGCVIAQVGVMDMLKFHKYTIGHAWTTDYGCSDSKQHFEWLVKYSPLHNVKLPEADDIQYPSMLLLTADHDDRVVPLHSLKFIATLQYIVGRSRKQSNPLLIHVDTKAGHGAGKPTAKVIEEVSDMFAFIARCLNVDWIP
Procedure, shortened: as §1

[6] = molecular target: DPP4 (Homo sapiens, UniProt P27487); experiment: DPP4 inhibition, fluorogenic substrate H-Gly-Pro-AMC; parameters: purchased R&D Systems; details: recombinant human DPP4
Sequence of DPP4 (P27487 whole entry): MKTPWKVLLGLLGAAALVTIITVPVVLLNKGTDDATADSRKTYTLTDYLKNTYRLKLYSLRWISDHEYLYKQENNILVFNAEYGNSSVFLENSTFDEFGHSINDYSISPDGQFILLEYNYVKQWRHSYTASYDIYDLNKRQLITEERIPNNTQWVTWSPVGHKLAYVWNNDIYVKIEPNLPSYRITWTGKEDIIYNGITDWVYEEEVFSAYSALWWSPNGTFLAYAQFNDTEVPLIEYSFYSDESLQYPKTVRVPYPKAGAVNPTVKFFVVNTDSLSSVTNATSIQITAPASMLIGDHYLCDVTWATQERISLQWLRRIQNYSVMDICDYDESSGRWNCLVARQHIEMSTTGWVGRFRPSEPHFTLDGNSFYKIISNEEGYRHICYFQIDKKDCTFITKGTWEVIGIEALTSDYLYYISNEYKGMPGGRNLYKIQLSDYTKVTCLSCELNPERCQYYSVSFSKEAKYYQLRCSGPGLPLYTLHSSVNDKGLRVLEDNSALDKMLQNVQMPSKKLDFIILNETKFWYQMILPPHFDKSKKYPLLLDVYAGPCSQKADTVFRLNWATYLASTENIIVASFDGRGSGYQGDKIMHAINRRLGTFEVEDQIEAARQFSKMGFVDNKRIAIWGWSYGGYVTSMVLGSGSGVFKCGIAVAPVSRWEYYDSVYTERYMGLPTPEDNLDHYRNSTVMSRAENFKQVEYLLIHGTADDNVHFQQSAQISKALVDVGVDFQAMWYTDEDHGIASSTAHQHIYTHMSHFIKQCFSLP

T1 sequence (Q86TI2 whole entry): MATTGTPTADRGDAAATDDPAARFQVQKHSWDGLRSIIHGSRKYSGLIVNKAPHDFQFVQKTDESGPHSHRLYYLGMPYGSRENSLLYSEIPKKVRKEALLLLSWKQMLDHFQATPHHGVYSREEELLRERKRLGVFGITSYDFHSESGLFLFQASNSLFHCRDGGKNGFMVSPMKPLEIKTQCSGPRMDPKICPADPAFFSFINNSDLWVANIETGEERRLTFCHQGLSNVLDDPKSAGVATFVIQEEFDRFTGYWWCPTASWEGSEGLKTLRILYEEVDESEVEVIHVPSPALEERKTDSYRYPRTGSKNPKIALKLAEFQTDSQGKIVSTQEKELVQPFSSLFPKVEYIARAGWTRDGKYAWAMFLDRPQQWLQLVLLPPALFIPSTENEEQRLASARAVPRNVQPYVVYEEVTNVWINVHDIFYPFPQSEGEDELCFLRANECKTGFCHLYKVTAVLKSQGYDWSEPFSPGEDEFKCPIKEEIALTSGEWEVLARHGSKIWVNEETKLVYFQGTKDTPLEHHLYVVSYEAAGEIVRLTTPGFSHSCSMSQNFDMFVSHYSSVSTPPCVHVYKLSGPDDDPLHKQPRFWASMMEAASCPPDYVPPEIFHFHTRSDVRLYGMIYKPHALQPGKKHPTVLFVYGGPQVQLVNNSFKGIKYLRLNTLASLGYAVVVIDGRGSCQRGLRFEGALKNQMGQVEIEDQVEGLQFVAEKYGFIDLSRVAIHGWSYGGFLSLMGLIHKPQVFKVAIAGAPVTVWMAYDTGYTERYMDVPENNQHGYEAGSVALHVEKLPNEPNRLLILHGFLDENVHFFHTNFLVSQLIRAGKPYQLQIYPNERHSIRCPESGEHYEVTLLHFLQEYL

| Compound | pIC50 [1] | pIC50 [2] | pIC50 [3] | pIC50 [4] | IC50 [5] | pIC50 [6] |
| --- | --- | --- | --- | --- | --- | --- |
| N#C[C@@H]1C[C@H](F)CN1C(=O)CN1CC[C@H](Nc2cc(C(F)(F)F)cc3ncccc23)C1 [Example 258, (2S,4S)-4-fluoro-1-[2-[(3S)-3-[[7-(trifluoromethyl)-5-quinolyl]amino]pyrrolidin-1-yl]acetyl]pyrrolidine-2-carbonitrile] | 5.10 | < 4.00 | 5.86 | 9.00 | 1280 nM | 5.74 |
| Cc1ccc2ncccc2c1N[C@H]1CCN(CC(=O)N2C[C@@H](F)C[C@H]2C#N)C1 [Example 259, (2S,4S)-4-fluoro-1-[2-[(3S)-3-[(6-methyl-5-quinolyl)amino]pyrrolidin-1-yl]acetyl]pyrrolidine-2-carbonitrile] | 5.07 | 4.73 | 5.48 | 8.59 | 2470 nM | 5.90 |
| COc1ccc2ncccc2c1N[C@H]1CCN(CC(=O)N2C[C@@H](F)C[C@H]2C#N)C1 [Example 260, (2S,4S)-4-fluoro-1-[2-[(3S)-3-[(6-methoxy-5-quinolyl)amino]pyrrolidin-1-yl]acetyl]pyrrolidine-2-carbonitrile] | 5.11 | 4.68 | 5.08 | 8.24 | 6500 nM | 6.13 |
| N#C[C@@H]1C[C@H](F)CN1C(=O)CN1CC[C@H](Nc2c(F)ccc3ncccc23)C1 [Example 261, (2S,4S)-4-fluoro-1-[2-[(3S)-3-[(6-fluoro-5-quinolyl)amino]pyrrolidin-1-yl]acetyl]pyrrolidine-2-carbonitrile] | 5.03 | 4.68 | 5.18 | 8.70 | 3940 nM | 5.93 |
| Cc1ccc(N[C@H]2CCN(CC(=O)N3C[C@@H](F)C[C@H]3C#N)C2)c2cccnc12 [Example 262, (2S,4S)-4-fluoro-1-[2-[(3S)-3-[(8-methyl-5-quinolyl)amino]pyrrolidin-1-yl]acetyl]pyrrolidine-2-carbonitrile] | 5.45 | 5.52 | 6.34 | 8.92 | 1850 nM | 5.87 |
| N#C[C@@H]1C[C@H](F)CN1C(=O)CN1CC[C@H](Nc2ccc(C(F)(F)F)c3ncccc23)C1 [Example 265, (2S,4S)-4-fluoro-1-[2-[(3S)-3-[[8-(trifluoromethyl)-5-quinolyl]amino]pyrrolidin-1-yl]acetyl]pyrrolidine-2-carbonitrile] | 5.27 | < 4.00 | 5.95 | 9.10 | 1730 nM | 5.91 |
| N#C[C@@H]1C[C@H](F)CN1C(=O)CN1CC[C@H](Nc2cc(F)cc3ncccc23)C1 [Example 269, (2S,4S)-4-fluoro-1-[2-[(3S)-3-[(7-fluoro-5-quinolyl)amino]pyrrolidin-1-yl]acetyl]pyrrolidine-2-carbonitrile] | 5.31 | 5.14 | 6.09 | 8.92 | 2310 nM | 5.55 |
| N#C[C@@H]1CCCN1C(=O)CN1CC[C@H](Nc2ccnc3c(C(F)(F)F)cccc23)C1 [Example 270, (2S)-1-[2-[(3S)-3-[[8-(trifluoromethyl)-4-quinolyl]amino]pyrrolidin-1-yl]acetyl]pyrrolidine-2-carbonitrile] | 4.72 | 4.36 | 6.23 | 8.89 | 10900 nM | < 5.00 |
| N#C[C@@H]1C[C@H](F)CN1C(=O)CN1CC[C@H](Nc2ccnc3c(C(F)(F)F)cccc23)C1 [Example 271, (2S,4S)-4-fluoro-1-[2-[(3S)-3-[[8-(trifluoromethyl)-4-quinolyl]amino]pyrrolidin-1-yl]acetyl]pyrrolidine-2-carbonitrile] | 5.36 | 5.10 | 6.67 | 8.85 | 3740 nM | 5.42 |
| COc1ccc2nccc(O[C@H]3CCN(CC(=O)N4C[C@@H](F)C[C@H]4C#N)C3)c2c1 [Example 299, (2S,4S)-4-fluoro-1-[2-[(3S)-3-[(6-methoxy-4-quinolyl)oxy]pyrrolidin-1-yl]acetyl]pyrrolidine-2-carbonitrile] | 5.09 | 4.88 | 5.01 | 8.77 | 1410 nM | < 5.00 |
| COc1cc2nccc(O[C@H]3CCN(CC(=O)N4C[C@@H](F)C[C@H]4C#N)C3)c2cc1OC [Example 300, (2S,4S)-4-fluoro-1-[2-[(3S)-3-[(6,7-dimethoxy-4-quinolyl)oxy]pyrrolidin-1-yl]acetyl]pyrrolidine-2-carbonitrile] | 4.92 | 4.75 | 5.53 | 8.72 | 4890 nM | < 5.00 |
| N#C[C@@H]1CCCN1C(=O)CN1CCC(NC(=O)c2cccc3cccnc23)CC1 [Example 301, N-[1-[2-oxo-2-[(2S)-2-cyanopyrrolidin-1-yl]ethyl]-4-piperidyl]quinoline-8-carboxamide] | < 4.00 | < 4.00 | 5.81 | 7.16 | 36000 nM | 5.09 |
| CN(c1ccc2ncccc2c1)C1CCN(CC(=O)N2CCC[C@H]2C#N)CC1 [Example 310, (2S)-1-[2-[4-[methyl(6-quinolyl)amino]-1-piperidyl]acetyl]pyrrolidine-2-carbonitrile] | 4.18 | < 4.00 | 5.36 | 8.28 | 740 nM | < 5.00 |
| CN(c1ccc2cccnc2c1)C1CCN(CC(=O)N2CCC[C@H]2C#N)CC1 [Example 311, (2S)-1-[2-[4-[methyl(7-quinolyl)amino]-1-piperidyl]acetyl]pyrrolidine-2-carbonitrile] | 4.01 | < 4.00 | 5.60 | 7.85 | 4350 nM | < 5.00 |
| CN(c1cccc2cnccc12)C1CCN(CC(=O)N2CCC[C@H]2C#N)CC1 [Example 313, (2S)-1-[2-[4-[5-isoquinolyl(methyl)amino]-1-piperidyl]acetyl]pyrrolidine-2-carbonitrile] | 4.86 | < 4.00 | < 4.00 | 7.13 | 9360 nM | < 5.00 |
| CN(c1ccc2cnccc2c1)C1CCN(CC(=O)N2CCC[C@H]2C#N)CC1 [Example 314, (2S)-1-(2-(4-(isoquinolin-6-yl(methyl)amino)piperidin-1-yl)acetyl)pyrrolidine-2-carbonitrile] | 4.46 | < 4.00 | 5.61 | 8.06 | 531 nM | < 5.00 |
| CN(c1ccc2ncccc2c1)C1CCN(CC(=O)N2C[C@@H](F)C[C@H]2C#N)CC1 [Example 315, (2S,4S)-4-fluoro-1-[2-[4-[methyl(6-quinolyl)amino]-1-piperidyl]acetyl]pyrrolidine-2-carbonitrile] | 5.24 | < 5.00 | 5.98 | 8.77 | 134 nM | 5.04 |
